From publication PMC5605198, “MELK is not necessary for the proliferation of basal-like breast cancer cells” (eLife, 2017)
Like-named read-outs stand apart in the source and are kept apart here.

Key:
PHK = assay: ICKP radiometric kinase assay; type: biochemical; conditions: 1 μM
IKK epsilon = IKK epsilon (Homo sapiens, UniProt Q14164); assay: ICKP radiometric kinase assay; type: biochemical; conditions: read-out: % AR (% kinase activity remaining)
SYK = SYK (Homo sapiens, UniProt P43405); assay: ICKP radiometric kinase assay; type: biochemical; conditions: read-out: % AR (% kinase activity remaining)
p38 gamma = p38 gamma (Homo sapiens, UniProt P53778); assay: ICKP radiometric kinase assay; type: biochemical; conditions: read-out: % AR (% kinase activity remaining)
OSR1 = OSR1 (Homo sapiens, UniProt O95747); assay: ICKP radiometric kinase assay; type: biochemical; conditions: read-out: % AR (% kinase activity remaining)
BRSK2 = BRSK2 (Homo sapiens, UniProt Q8IWQ3); assay: ICKP radiometric kinase assay; type: biochemical; conditions: read-out: % AR (% kinase activity remaining)
HIPK2 = HIPK2 (Homo sapiens, UniProt Q9H2X6); assay: ICKP radiometric kinase assay; type: biochemical; conditions: read-out: % AR (% kinase activity remaining)
BTK = BTK (Homo sapiens, UniProt Q06187); assay: ICKP radiometric kinase assay; type: biochemical; conditions: read-out: % AR (% kinase activity remaining)
PDGFRA = PDGFRA (Homo sapiens, UniProt P16234); assay: ICKP radiometric kinase assay; type: biochemical; conditions: read-out: % AR (% kinase activity remaining)
MCF7 = assay: Cell proliferation assay (CellTiter-Glo); conditions: Homo sapiens
TESK1 = TESK1 (Homo sapiens, UniProt Q15569); assay: ICKP radiometric kinase assay; type: biochemical; conditions: read-out: % AR (% kinase activity remaining)
TIE2 = TIE2 (Homo sapiens, UniProt Q02763); assay: ICKP radiometric kinase assay; type: biochemical; conditions: read-out: % AR (% kinase activity remaining)
Lck = Lck (Homo sapiens, UniProt P06239); assay: ICKP radiometric kinase assay; type: biochemical; conditions: read-out: % AR (% kinase activity remaining)
Aurora B = Aurora B (Homo sapiens, UniProt Q96GD4); assay: ICKP radiometric kinase assay; type: biochemical; conditions: read-out: % AR (% kinase activity remaining)
MKK2 = MKK2 (Homo sapiens, UniProt P36507); assay: ICKP radiometric kinase assay; type: biochemical; conditions: read-out: % AR (% kinase activity remaining)
T-47D = assay: Cell proliferation assay (CellTiter-Glo); conditions: Homo sapiens, T47D
CDK2-Cyclin A = CDK2-Cyclin A (Homo sapiens, UniProt P24941); assay: ICKP radiometric kinase assay; type: biochemical; conditions: read-out: % AR (% kinase activity remaining)
RSK2 = RSK2 (Homo sapiens, UniProt P51812); assay: ICKP radiometric kinase assay; type: biochemical; conditions: read-out: % AR (% kinase activity remaining)
CHK2 = CHK2 (Homo sapiens, UniProt O96017); assay: ICKP radiometric kinase assay; type: biochemical; conditions: read-out: % AR (% kinase activity remaining)
MST3 = MST3 (Homo sapiens, UniProt Q9Y6E0); assay: ICKP radiometric kinase assay; type: biochemical; conditions: read-out: % AR (% kinase activity remaining)
DYRK3 = molecular target: T1, DYRK3 (Homo sapiens, UniProt O43781); assay: ICKP radiometric kinase assay; type: biochemical; conditions: for remaining activity at 1 µM: read-out: % AR (% kinase activity remaining)
T1 sequence (O43781 1-588): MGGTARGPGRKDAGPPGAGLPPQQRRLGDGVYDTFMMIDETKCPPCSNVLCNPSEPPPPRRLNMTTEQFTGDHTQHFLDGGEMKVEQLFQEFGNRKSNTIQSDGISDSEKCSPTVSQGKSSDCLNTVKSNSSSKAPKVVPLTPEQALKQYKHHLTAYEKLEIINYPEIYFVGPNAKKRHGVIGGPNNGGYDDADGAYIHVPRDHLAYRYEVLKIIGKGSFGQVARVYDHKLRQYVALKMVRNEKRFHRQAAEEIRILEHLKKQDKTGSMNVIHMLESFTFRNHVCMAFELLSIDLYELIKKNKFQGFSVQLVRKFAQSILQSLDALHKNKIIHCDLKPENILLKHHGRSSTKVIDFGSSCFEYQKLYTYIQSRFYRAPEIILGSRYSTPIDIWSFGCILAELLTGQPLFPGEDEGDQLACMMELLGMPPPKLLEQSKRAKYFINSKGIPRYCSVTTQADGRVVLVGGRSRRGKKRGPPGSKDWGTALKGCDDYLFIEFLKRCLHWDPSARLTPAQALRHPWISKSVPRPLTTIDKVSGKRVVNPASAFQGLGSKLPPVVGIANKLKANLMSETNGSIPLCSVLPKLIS

MNK2 = MNK2 (Homo sapiens, UniProt Q9HBH9); assay: ICKP radiometric kinase assay; type: biochemical; conditions: read-out: % AR (% kinase activity remaining)
PRAK = PRAK (Homo sapiens, UniProt Q8IW41); assay: ICKP radiometric kinase assay; type: biochemical; conditions: read-out: % AR (% kinase activity remaining)
PKB beta = PKB beta (Homo sapiens, UniProt P31751); assay: ICKP radiometric kinase assay; type: biochemical; conditions: read-out: % AR (% kinase activity remaining)
EPH-B1 = EPH-B1 (Homo sapiens, UniProt P54762); assay: ICKP radiometric kinase assay; type: biochemical; conditions: read-out: % AR (% kinase activity remaining)
NEK6 = NEK6 (Homo sapiens, UniProt Q9HC98); assay: ICKP radiometric kinase assay; type: biochemical; conditions: read-out: % AR (% kinase activity remaining)
PAK4 = PAK4 (Homo sapiens, UniProt O96013); assay: ICKP radiometric kinase assay; type: biochemical; conditions: read-out: % AR (% kinase activity remaining)
MSK1 = MSK1 (Homo sapiens, UniProt O75582); assay: ICKP radiometric kinase assay; type: biochemical; conditions: read-out: % AR (% kinase activity remaining)
CAMKK beta = CAMKK beta (Homo sapiens, UniProt Q96RR4); assay: ICKP radiometric kinase assay; type: biochemical; conditions: read-out: % AR (% kinase activity remaining)
YES1 = YES1 (Homo sapiens, UniProt P07947); assay: ICKP radiometric kinase assay; type: biochemical; conditions: read-out: % AR (% kinase activity remaining)
MST2 = MST2 (Homo sapiens, UniProt Q13188); assay: ICKP radiometric kinase assay; type: biochemical; conditions: read-out: % AR (% kinase activity remaining)
ERK1 = ERK1 (Homo sapiens, UniProt P27361); assay: ICKP radiometric kinase assay; type: biochemical; conditions: read-out: % AR (% kinase activity remaining)
PDK1 = PDK1 (Homo sapiens, UniProt O15530); assay: ICKP radiometric kinase assay; type: biochemical; conditions: read-out: % AR (% kinase activity remaining)
PIK3CA = PIK3CA (Homo sapiens, UniProt P42336); assay: Adapta kinase assay; conditions: Adapta assay at [ATP]=apparent Km; read-out: Biochemical IC50 PIK3CA
MINK1 = MINK1 (Homo sapiens, UniProt Q8N4C8); assay: ICKP radiometric kinase assay; type: biochemical; conditions: read-out: % AR (% kinase activity remaining)
[1] = MCF7, 72 h, read-out: 3-day antiproliferative IC50
[2] = MCF7, 168 h, read-out: 7-day antiproliferative IC50
[3] = 72 h, read-out: 3-day antiproliferative IC50
[4] = 168 h, read-out: 7-day antiproliferative IC50

OSR1, sequence (O95747 whole entry): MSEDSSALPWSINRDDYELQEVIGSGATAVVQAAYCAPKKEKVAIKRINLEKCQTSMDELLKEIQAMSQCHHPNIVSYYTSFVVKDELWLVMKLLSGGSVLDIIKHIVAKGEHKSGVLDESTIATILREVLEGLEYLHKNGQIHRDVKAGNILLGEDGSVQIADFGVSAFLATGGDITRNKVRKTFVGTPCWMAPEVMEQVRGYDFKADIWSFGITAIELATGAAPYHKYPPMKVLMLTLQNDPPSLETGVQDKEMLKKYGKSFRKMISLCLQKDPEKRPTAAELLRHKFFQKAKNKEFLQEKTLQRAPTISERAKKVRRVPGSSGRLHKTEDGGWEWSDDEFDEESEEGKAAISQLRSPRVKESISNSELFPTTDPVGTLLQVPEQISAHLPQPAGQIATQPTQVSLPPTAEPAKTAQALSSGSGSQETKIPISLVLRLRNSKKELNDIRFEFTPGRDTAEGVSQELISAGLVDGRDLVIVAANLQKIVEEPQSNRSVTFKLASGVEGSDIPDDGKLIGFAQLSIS
MST3, sequence (Q9Y6E0 whole entry): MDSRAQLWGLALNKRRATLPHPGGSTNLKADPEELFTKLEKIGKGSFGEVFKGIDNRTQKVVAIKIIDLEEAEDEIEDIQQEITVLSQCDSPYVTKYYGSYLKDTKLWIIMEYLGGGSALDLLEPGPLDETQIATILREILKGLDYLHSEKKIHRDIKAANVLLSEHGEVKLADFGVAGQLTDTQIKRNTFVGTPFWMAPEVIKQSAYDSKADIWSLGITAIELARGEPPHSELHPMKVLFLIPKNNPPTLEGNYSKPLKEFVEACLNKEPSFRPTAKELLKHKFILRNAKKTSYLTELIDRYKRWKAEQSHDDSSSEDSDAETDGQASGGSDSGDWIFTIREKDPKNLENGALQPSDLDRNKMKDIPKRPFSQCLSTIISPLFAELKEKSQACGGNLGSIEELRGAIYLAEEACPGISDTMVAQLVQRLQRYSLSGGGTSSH
Lck, sequence (P06239 whole entry): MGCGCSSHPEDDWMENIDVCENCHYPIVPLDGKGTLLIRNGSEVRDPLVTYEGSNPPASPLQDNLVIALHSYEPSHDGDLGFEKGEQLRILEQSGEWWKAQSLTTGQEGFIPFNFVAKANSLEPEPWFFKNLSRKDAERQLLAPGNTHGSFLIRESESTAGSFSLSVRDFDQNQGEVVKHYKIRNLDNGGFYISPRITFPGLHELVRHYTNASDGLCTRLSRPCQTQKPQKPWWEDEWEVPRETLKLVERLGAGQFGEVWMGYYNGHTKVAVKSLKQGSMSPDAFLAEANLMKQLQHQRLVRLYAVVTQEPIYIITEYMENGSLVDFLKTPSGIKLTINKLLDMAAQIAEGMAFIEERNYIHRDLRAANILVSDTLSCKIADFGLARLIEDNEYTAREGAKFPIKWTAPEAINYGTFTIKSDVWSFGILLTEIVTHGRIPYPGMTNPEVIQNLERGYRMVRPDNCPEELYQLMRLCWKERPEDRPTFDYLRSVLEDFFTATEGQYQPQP
PDK1, sequence (O15530 whole entry): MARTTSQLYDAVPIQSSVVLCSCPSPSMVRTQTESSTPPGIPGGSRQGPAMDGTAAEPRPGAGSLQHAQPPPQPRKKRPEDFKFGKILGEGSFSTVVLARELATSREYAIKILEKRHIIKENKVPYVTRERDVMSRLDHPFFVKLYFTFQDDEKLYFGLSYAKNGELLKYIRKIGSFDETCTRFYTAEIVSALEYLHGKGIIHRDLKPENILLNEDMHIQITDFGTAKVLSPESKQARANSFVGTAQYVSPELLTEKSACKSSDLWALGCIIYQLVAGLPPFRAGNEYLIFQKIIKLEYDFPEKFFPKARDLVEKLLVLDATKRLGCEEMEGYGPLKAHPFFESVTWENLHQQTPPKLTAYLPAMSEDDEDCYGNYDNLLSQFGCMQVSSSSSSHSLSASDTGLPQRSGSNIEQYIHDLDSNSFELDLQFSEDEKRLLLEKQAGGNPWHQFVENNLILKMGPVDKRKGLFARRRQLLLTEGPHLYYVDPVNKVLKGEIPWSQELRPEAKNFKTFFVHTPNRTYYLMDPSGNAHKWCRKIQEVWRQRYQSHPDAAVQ
PKB beta, sequence (P31751 whole entry): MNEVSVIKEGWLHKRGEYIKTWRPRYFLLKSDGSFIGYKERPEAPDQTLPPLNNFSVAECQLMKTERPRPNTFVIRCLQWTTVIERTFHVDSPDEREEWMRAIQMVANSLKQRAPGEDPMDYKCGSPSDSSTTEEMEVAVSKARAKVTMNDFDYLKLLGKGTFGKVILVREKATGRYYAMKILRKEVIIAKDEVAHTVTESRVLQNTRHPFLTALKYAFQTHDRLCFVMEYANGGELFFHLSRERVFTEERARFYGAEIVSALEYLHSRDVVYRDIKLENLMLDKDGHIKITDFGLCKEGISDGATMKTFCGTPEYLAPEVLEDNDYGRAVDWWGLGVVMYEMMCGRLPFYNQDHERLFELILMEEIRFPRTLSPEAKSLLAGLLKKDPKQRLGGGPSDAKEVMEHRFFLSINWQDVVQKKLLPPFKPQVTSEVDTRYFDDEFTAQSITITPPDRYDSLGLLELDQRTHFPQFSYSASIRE
MNK2, sequence (Q9HBH9 whole entry): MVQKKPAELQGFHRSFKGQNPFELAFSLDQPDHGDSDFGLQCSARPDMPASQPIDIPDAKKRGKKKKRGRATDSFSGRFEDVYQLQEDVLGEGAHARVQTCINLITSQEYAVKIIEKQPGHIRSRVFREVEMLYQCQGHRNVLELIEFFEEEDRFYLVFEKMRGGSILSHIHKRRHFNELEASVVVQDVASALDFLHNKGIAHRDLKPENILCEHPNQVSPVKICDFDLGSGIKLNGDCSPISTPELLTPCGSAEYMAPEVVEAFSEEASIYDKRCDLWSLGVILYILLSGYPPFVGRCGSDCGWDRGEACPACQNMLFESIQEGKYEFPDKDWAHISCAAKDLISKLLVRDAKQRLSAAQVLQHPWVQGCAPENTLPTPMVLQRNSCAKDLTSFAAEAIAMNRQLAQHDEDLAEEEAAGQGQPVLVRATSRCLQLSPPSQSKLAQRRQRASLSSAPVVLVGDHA
CHK2, sequence (O96017 whole entry): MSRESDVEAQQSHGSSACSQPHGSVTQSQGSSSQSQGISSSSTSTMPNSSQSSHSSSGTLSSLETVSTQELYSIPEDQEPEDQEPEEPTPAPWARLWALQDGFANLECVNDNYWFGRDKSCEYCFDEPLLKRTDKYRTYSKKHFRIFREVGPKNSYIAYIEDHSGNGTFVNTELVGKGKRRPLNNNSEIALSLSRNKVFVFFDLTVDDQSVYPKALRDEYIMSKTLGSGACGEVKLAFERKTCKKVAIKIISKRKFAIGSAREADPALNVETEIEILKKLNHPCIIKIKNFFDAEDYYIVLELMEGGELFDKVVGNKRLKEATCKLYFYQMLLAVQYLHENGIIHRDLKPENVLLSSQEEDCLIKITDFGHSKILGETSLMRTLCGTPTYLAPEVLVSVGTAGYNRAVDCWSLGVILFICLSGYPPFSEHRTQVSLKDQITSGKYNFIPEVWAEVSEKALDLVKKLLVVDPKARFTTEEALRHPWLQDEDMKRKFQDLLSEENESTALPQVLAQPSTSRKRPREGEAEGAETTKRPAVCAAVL
TESK1, sequence (Q15569 whole entry): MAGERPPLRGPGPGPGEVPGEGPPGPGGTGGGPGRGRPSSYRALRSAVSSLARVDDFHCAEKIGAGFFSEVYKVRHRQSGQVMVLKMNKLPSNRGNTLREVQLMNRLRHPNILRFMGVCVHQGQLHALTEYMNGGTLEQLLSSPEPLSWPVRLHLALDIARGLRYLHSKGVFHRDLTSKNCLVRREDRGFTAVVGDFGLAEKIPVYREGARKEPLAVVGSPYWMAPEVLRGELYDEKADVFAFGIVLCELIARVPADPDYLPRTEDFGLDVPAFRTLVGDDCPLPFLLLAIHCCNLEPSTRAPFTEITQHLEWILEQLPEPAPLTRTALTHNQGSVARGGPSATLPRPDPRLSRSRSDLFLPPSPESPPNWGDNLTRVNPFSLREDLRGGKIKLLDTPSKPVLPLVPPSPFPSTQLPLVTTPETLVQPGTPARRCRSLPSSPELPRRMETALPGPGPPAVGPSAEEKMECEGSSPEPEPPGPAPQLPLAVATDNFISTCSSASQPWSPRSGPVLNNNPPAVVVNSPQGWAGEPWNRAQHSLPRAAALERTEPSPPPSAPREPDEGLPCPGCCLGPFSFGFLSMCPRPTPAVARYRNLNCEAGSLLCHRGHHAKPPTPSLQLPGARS
Aurora B, sequence (Q96GD4 whole entry): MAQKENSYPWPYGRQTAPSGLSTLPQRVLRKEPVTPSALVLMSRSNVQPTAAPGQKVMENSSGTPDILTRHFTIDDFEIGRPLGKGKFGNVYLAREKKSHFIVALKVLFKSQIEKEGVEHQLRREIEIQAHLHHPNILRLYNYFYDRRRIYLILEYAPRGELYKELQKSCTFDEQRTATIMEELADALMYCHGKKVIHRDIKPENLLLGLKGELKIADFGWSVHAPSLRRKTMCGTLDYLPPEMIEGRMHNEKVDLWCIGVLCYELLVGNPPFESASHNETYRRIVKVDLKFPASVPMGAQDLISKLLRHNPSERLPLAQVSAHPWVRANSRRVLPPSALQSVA
p38 gamma, sequence (P53778 whole entry): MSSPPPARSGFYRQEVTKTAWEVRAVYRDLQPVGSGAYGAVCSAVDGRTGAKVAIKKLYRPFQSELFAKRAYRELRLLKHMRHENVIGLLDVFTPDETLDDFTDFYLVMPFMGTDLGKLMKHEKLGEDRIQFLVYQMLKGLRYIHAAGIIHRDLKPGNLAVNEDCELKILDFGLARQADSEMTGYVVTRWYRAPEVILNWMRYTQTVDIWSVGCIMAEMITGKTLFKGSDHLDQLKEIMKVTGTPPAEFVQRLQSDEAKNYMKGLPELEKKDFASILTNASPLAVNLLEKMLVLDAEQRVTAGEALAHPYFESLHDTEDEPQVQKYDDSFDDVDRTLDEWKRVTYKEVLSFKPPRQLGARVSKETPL

| Structure (SMILES) | % AR (% kinase activity remaining) (PHK) [%] | remaining activity at 1 µM (IKK epsilon) [%] | remaining activity at 1 µM (SYK) [%] | remaining activity at 1 µM (p38 gamma) [%] | remaining activity at 1 µM (OSR1) [%] | remaining activity at 1 µM (BRSK2) [%] | remaining activity at 1 µM (HIPK2) [%] | remaining activity at 1 µM (BTK) [%] | remaining activity at 1 µM (PDGFRA) [%] | IC50 (MCF7; [1]) [nM] | IC50 (MCF7; [2]) [nM] | remaining activity at 1 µM (TESK1) [%] | remaining activity at 1 µM (TIE2) [%] | remaining activity at 1 µM (Lck) [%] | remaining activity at 1 µM (Aurora B) [%] | remaining activity at 1 µM (MKK2) [%] | IC50 (T-47D; [3]) [nM] | IC50 (T-47D; [4]) [nM] | remaining activity at 1 µM (CDK2-Cyclin A) [%] | remaining activity at 1 µM (RSK2) [%] | further results |
| --- | --- | --- | --- | --- | --- | --- | --- | --- | --- | --- | --- | --- | --- | --- | --- | --- | --- | --- | --- | --- | --- |
| CN(C)C[C@H]1CC[C@H](N2C(=O)NCc3cnc4ccc(-c5cc(Cl)c(O)c(Cl)c5)cc4c32)CC1 [HTH-01-091, 9-(3,5-dichloro-4-hydroxyphenyl)-1-(trans-4-((dimethylamino)methyl)cyclohexyl)-3,4-dihydropyrimido[5,4 c]quinolin-2(1H)-one] | 74 | 92 | 112 | 86 | 93 | 125 | 13 | 45 | 35 | 8750 | 4130 | 95 | 71 | 35 | 35 | 75 | 3870 | 780 | 67 | 62 | remaining activity at 1 µM (CHK2): 34%; remaining activity at 1 µM (MST3): 93%; remaining activity at 1 µM (DYRK3): 5%; IC50 (DYRK3; radioactive filter-binding assay provided by the ICKP, read-out: Enzymatic IC50 DYRK3): 41.8 nM; remaining activity at 1 µM (MNK2): 103%; remaining activity at 1 µM (PRAK): 78%; remaining activity at 1 µM (PKB beta): 88%; remaining activity at 1 µM (EPH-B1): 122%; remaining activity at 1 µM (NEK6): 95%; remaining activity at 1 µM (PAK4): 79%; remaining activity at 1 µM (MSK1): 65%; remaining activity at 1 µM (CAMKK beta): 91%; remaining activity at 1 µM (YES1): 32%; remaining activity at 1 µM (MST2): 45%; remaining activity at 1 µM (ERK1): 119%; remaining activity at 1 µM (PDK1): 102%; IC50 (PIK3CA): 962 nM; remaining activity at 1 µM (MINK1): 38% |
| CC(=O)c1cnc2ccc(-c3cc(Cl)c(O)c(Cl)c3)nc2c1N[C@H]1CC[C@H](CN(C)C)CC1 [OTSSP167] | 3 | 2 | 7 | 12 | 45 | 2 | 2 | 7 | 20 | 35 | 27 | 51 | 3 | 0 | 14 | 10 | 106 | 9 | 2 | 1 | remaining activity at 1 µM (CHK2): 1%; remaining activity at 1 µM (MST3): 5%; remaining activity at 1 µM (DYRK3): 1%; remaining activity at 1 µM (MNK2): 13%; remaining activity at 1 µM (PRAK): 16%; remaining activity at 1 µM (PKB beta): 24%; remaining activity at 1 µM (EPH-B1): 11%; remaining activity at 1 µM (NEK6): 92%; remaining activity at 1 µM (PAK4): 9%; remaining activity at 1 µM (MSK1): 5%; remaining activity at 1 µM (CAMKK beta): 2%; remaining activity at 1 µM (YES1): 18%; remaining activity at 1 µM (MST2): 7%; remaining activity at 1 µM (ERK1): 88%; remaining activity at 1 µM (PDK1): 4%; IC50 (PIK3CA): 66.5 nM; remaining activity at 1 µM (MINK1): 2% |
